Test systems include SK-OV-3 ovarian; SNB-75 CNS; OVCAR-8 ovarian; UO-31 renal; SN12C renal; EKVX NSCLC; HCT-15 colon; COLO 205 colon; RPMI-8226 leukemia; U251 CNS.
Common to all, as to assay: NCI-60 cell line screen, 48 h

Structures are written as SMILES.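 All cell lines were grown in 96-well plates and treated with compound for 48 hours. Abbreviation: GI50, concentration required for 50% inhibition of growth. At the TGI there is no net growth.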

Turning to `CC[O-].CC[O-].O=C1c2ccccc2C(=O)c2c(O)ccc([O-])c21.O=C1c2ccccc2C(=O)c2c(O)ccc([O-])c21.[Ti+4]`, the TGI in the assay on SK-OV-3 ovarian, in the assay on SNB-75 CNS, in the assay with OVCAR-8 ovarian, in the assay with UO-31 renal, with SN12C renal and in the assay on EKVX NSCLC was more than 100 µM in each case. Besides, the TGI with HCT-15 colon, in the assay on COLO 205 colon and with RPMI-8226 leukemia was more than 100 µM in each case.

For the compound `c1ccc(C2=NNC3c4ccccc4-c4ccccc4N3C2)cc1` (stereo not drawn), the TGI is more than 100 µM in the assay on U251 CNS; more than 100 µM with SK-OV-3 ovarian; 66.1 µM with SNB-75 CNS; more than 100 µM in the assay with OVCAR-8 ovarian; more than 100 µM with UO-31 renal; more than 100 µM in the assay with SN12C renal. The TGI in the assay with EKVX NSCLC is more than 100 µM; in the assay with HCT-15 colon, more than 100 µM; in the assay on COLO 205 colon it was 37.3 µM; in the assay on RPMI-8226 leukemia, 57.8 µM.

With `O=C(Nc1ccc(Cl)cc1)c1cc(-c2ccc(F)cc2)c2sc(=O)[nH]c2n1`, the GI50 was 1.5 µM in the assay with U251 CNS; 1.57 µM in the assay on SK-OV-3 ovarian; 2.02 µM with SNB-75 CNS; 1.72 µM with OVCAR-8 ovarian; 1.61 µM in the assay on UO-31 renal; 1.99 µM in the assay with SN12C renal. For the same compound, the GI50 with EKVX NSCLC is 1.64 µM; with HCT-15 colon it was 1.73 µM; in the assay with COLO 205 colon, 1.76 µM; in the assay with RPMI-8226 leukemia, 0.391 µM. The TGI worked out at 4.71 µM with U251 CNS; 5.41 µM with SK-OV-3 ovarian; 5.33 µM in the assay with SNB-75 CNS; 4.93 µM in the assay with OVCAR-8 ovarian; 3.89 µM with UO-31 renal; 7.93 µM in the assay with SN12C renal. Besides, the TGI in the assay on EKVX NSCLC amounted to 6.11 µM; in the assay with HCT-15 colon, 10.1 µM; in the assay with COLO 205 colon, 3.82 µM; with RPMI-8226 leukemia it was 2.22 µM.

Take `CCN(CC)c1sc(N(CC)CC)c2c1SSSSS2`: the GI50 was 2.76 µM in the assay on U251 CNS; 3.13 µM with SK-OV-3 ovarian; 2.71 µM in the assay with SNB-75 CNS; 2.18 µM in the assay on OVCAR-8 ovarian; 0.867 µM in the assay on UO-31 renal; 0.315 µM in the assay on SN12C renal. In addition, the GI50 in the assay with EKVX NSCLC was 1.84 µM; in the assay on HCT-15 colon, 1.24 µM; in the assay on COLO 205 colon, 0.937 µM; with RPMI-8226 leukemia, 0.366 µM. The TGI in the assay with U251 CNS worked out at 13.2 µM; with SK-OV-3 ovarian, 6.98 µM; with SNB-75 CNS it was 4.52 µM; in the assay with OVCAR-8 ovarian, 4.7 µM; with UO-31 renal, 2.88 µM; with SN12C renal, 0.866 µM. The figures for the TGI in the assay with EKVX NSCLC, in the assay on HCT-15 colon and with RPMI-8226 leukemia were 5.54 µM, more than 34.2 µM and 1.36 µM, respectively.

As to `COc1ccc(C(=O)COc2cccc(/C=C3\COc4ccc5ccccc5c4C3=O)c2)cc1`, the GI50 was 5.61 µM in the assay on U251 CNS; 82.2 µM with SK-OV-3 ovarian; 2.39 µM with SNB-75 CNS; 4.5 µM in the assay with OVCAR-8 ovarian; 20.4 µM in the assay on UO-31 renal; 4.46 µM in the assay with SN12C renal. Besides, the GI50 in the assay on EKVX NSCLC was 4.26 µM; in the assay with HCT-15 colon, 7.59 µM; in the assay on COLO 205 colon, 16.9 µM; in the assay on RPMI-8226 leukemia, 1.15 µM. Also, the TGI with U251 CNS is more than 100 µM; in the assay on SK-OV-3 ovarian it was more than 100 µM; in the assay on SNB-75 CNS, 11.6 µM; with OVCAR-8 ovarian, more than 100 µM; in the assay with UO-31 renal, more than 100 µM; with SN12C renal it was more than 100 µM. The TGI with EKVX NSCLC was more than 100 µM; with HCT-15 colon, more than 100 µM; in the assay on COLO 205 colon, more than 100 µM; in the assay on RPMI-8226 leukemia, 3.94 µM.

For `COc1cc(NC(=O)c2cc(O)c(CC=C(C)C)c(O)c2)cc2c1O[C@]1(C)CC[C@@H](O)C(C)(C)[C@H]1C2`, the GI50 in the assay with U251 CNS was 0.846 µM; in the assay on SK-OV-3 ovarian it was 4.72 µM; in the assay with SNB-75 CNS, 0.772 µM; in the assay on OVCAR-8 ovarian it was 6.34 µM; in the assay with UO-31 renal it was 2.42 µM; with SN12C renal it was 8.83 µM. Further, the GI50 in the assay on EKVX NSCLC was 5.96 µM; in the assay with HCT-15 colon it was 4.09 µM; in the assay with COLO 205 colon, 2.24 µM; with RPMI-8226 leukemia, 0.428 µM. Besides, the TGI with U251 CNS came out at 14.8 µM; in the assay on SK-OV-3 ovarian, 28.8 µM; in the assay on SNB-75 CNS, 25.9 µM; in the assay with OVCAR-8 ovarian, 33.7 µM; with UO-31 renal, 8.18 µM; in the assay with SN12C renal, 36.6 µM. Moreover, the TGI in the assay on EKVX NSCLC came to 48.2 µM; in the assay on HCT-15 colon, 21.3 µM; in the assay with COLO 205 colon, 5.5 µM; in the assay with RPMI-8226 leukemia, 2.73 µM.

Take `O=C1NC(=O)c2ccc([N+](=O)[O-])c3cccc1c23`: the TGI is 32.3 µM in the assay with U251 CNS; 50.9 µM in the assay on SK-OV-3 ovarian; 85.9 µM in the assay on SNB-75 CNS; 26.1 µM in the assay on OVCAR-8 ovarian; 29.8 µM in the assay on UO-31 renal; 32.1 µM with SN12C renal. For the same compound, the TGI worked out at 62.4 µM in the assay on EKVX NSCLC, 22.4 µM with HCT-15 colon, 30.9 µM in the assay on COLO 205 colon and 37.7 µM in the assay on RPMI-8226 leukemia.

On to `O=C(CCl)Nc1ccc(Cl)cc1`, for which the GI50 is 2.22 µM with U251 CNS; 6.93 µM in the assay on SK-OV-3 ovarian; 7.43 µM in the assay with SNB-75 CNS; 4.6 µM in the assay on OVCAR-8 ovarian; 8.07 µM with UO-31 renal; 3.4 µM in the assay on SN12C renal. The GI50 is 6.93 µM in the assay on EKVX NSCLC, 2.27 µM with HCT-15 colon, 1.98 µM in the assay on COLO 205 colon and 3.14 µM with RPMI-8226 leukemia. The TGI with U251 CNS was 5.26 µM; in the assay with SK-OV-3 ovarian it was 23 µM; in the assay on SNB-75 CNS, 21.1 µM; in the assay on OVCAR-8 ovarian, more than 100 µM; with UO-31 renal it was 24.1 µM; in the assay with SN12C renal, 22.9 µM. Besides, the TGI turned out to be 26.3 µM in the assay on EKVX NSCLC, 6.33 µM with HCT-15 colon, 3.61 µM in the assay with COLO 205 colon and 9.45 µM in the assay with RPMI-8226 leukemia.

With `COC(=O)Nc1nc2ccc(Oc3ccc(NC(=O)Nc4ccccc4)cc3)cc2[nH]1`, the GI50 in the assay with U251 CNS is 0.126 µM; in the assay with SK-OV-3 ovarian it was 0.0696 µM; in the assay on SNB-75 CNS it was 0.115 µM; in the assay with OVCAR-8 ovarian, 0.545 µM; in the assay on UO-31 renal, 1.65 µM; in the assay on SN12C renal it was 0.452 µM. For the same compound, the GI50 in the assay with EKVX NSCLC is 2.44 µM; with HCT-15 colon, 0.135 µM; in the assay on COLO 205 colon, 0.0835 µM; with RPMI-8226 leukemia it was 0.748 µM. For the same compound, the TGI in the assay on U251 CNS is 6.6 µM; in the assay with SK-OV-3 ovarian it was 0.3 µM; in the assay on SNB-75 CNS, 7.15 µM; in the assay with OVCAR-8 ovarian, 8.04 µM; with UO-31 renal it was more than 25 µM; in the assay on SN12C renal, more than 10.9 µM. Besides, the TGI in the assay on EKVX NSCLC was more than 25 µM; in the assay with HCT-15 colon it was more than 25 µM; in the assay on COLO 205 colon, 0.487 µM; in the assay with RPMI-8226 leukemia, more than 10 µM.

Source of the values: PubChem BioAssay (NCI).
